Laboratory results taken from publication PMC10056443, “Derivatives of Amaryllidaceae Alkaloid Ambelline as Selective Inhibitors of Hepatic Stage of Plasmodium berghei Infection In Vitro” (Pharmaceutics, 2023).
Where two headings read alike, the source gives them in different places.

Legend:
[1] = system: hepatic stage of P. berghei; experiment: In vitro activity against P. berghei hepatic stages (luciferase-expressing sporozoites in Huh-7 cells, bioluminescence); assay type: cell-based, Plasmodium berghei; parameters: INFECTION (IC50 determination): unit not given here; conditions: for activity at 1 µM / activity at 10 µM / IC50: Plasmodium berghei; for activity at 1 µM / activity at 10 µM: Huh-7, 48 h, read-out: INFECTION Ø screening; for activity at 1 µM / activity at 10 µM / INFECTION (IC50 determination): DMSO = 100
Procedure, shortened: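 Huh-7 hepatoma cells pretreated with compounds 1 h, then infected with luciferase-expressing P. berghei sporozoites (1 × 10^4/well, 1:1 ratio) and incubated at 37 °C.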

[2] = system: Huh-7 cell line; experiment: Huh-7 cell confluency by alamarBlue assay during hepatic-stage test; assay type: cell-based
Procedure, shortened: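 Huh-7 human hepatoma cells pre-treated with compound in infection medium 1 h before luciferase-expressing P. berghei sporozoites were added (1:1, 1 × 10^4 per well), then incubated 46 h at 37 °C, 5% CO2. Confluency assessed indirectly by alamarBlue; IC50 from nonlinear-regression fit of normalized dose-response curves.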

[3] = system: P. falciparum NF54 ring-stage synchronized cultures; experiment: In vitro activity against P. falciparum blood stages (flow cytometry, SYBR green I); assay type: cell-based, Plasmodium falciparum; conditions: Control = 7.76333, 48 h
Experimental: Activity against the blood stage of P. falciparum infection was assessed by flow cytometry analysis following the incubation of either test compounds or the drug vehicle (DMSO) with ring-stage synchronized parasite cultures, as previously described. Stock solutions of the test compounds, as well as of the positive control compound chloroquine, were prepared in DMSO and diluted to test concentrations in complete malaria culture medium (CMCM), i.e., 1640 RPMI medium supplemented with 25 mM HEPES, 2.4 mM L-glutamine, 50 µg/mL gentamicin, 0.5% w/v Albumax, 11 mM glucose, 1.47 mM hypoxanthine, and 37.3 mM NaHCO3. Samples at tested concentration were then incubated with ring-stage synchronized cultures of P. falciparum NF54 at 2.5% hematocrit and at approximately 1% parasitemia in 96-well plates at 37 °C in a 5% CO2 and 5% O2 atmosphere. Forty-eight hours post incubation, parasite load was assessed by flow cytometry, upon staining with the DNA-specific dye SYBR green I. Approximately 100,000 events were analyzed in each flow cytometry measurement.

[4] = Cytotoxicity assessment in vitro (MTT assay); assay type: cell-based; conditions: human
Procedure, shortened: (§1)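 Human HepG2 hepatocellular carcinoma cells (passage 20–25) were treated with compound at 10 μM in triplicate for 24 h at 37 °C, 5% CO2. Viability was then measured by MTT: 3 h incubation, formazan dissolved in DMSO, absorbance read at 570 nm.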

[5] = system: HepG2 cells; experiment: Cytotoxicity assessment in vitro (MTT assay); assay type: cell-based
Procedure, shortened: as §1

[6] = system: Plasmodium; parameters: method as in PMID 29243039; conditions: tested previously, cited from earlier work
[7] = hepatic stage, Huh-7 cells, parasite load 48 h post-infection, read-out: IC50 P. berghei
[8] = Huh-7, mean, unit (Table 1: µM), read-out: Antiplasmodial activity - Ø IC50
[9] = Huh-7, replicate 1, unit (Table 1: µM), read-out: Antiplasmodial activity - IC50 determination, 1. measurement
[10] = Huh-7, replicate 2, unit (Table 1: µM), read-out: Antiplasmodial activity - IC50 determination, 2. measurement
[11] = Huh-7, replicate 3, unit (Table 1: µM), read-out: Antiplasmodial activity - IC50 determination, 3. measurement

SMILES	activity at 1 µM [1]	activity at 10 µM [1]	IC50 [1, 7]	CELL CONFLUENCY Ø screening ([2]; human, 46 h, 1 µM, pH 7)	CELL CONFLUENCY Ø screening ([2]; human, 46 h, 10 µM, pH 7)	Ø screening, blood stage parasite load ([3]; at 10 nM)	Ø screening, blood stage parasite load ([3]; at 500 nM)	Ø screening, blood stage parasite load ([3]; at 100 nm)	viability at 24 h, 10 µM [4]	1. screening of cytotoxic potential, HepG2 cell line ([5]; human, 24 h, 10 µM)	2. screening of cytotoxic potential, HepG2 cell line ([5]; human, 24 h, 10 µM)	3. screening of cytotoxic potential, HepG2 cell line ([5]; human, 24 h, 10 µM)	Ø screening, HepG2 (sheet Graphs) ([5]; human, 24 h, 10 µM)	IC50 [1, 8]	IC50 [1, 9]	IC50 [1, 10]	IC50 [1, 11]	also measured
CCC(=O)O[C@@H]1CN2Cc3c(cc4c(c3OC)OCO4)[C@@]13C=C[C@H](OC)C[C@@H]23 [28b, 11-O-Propionylambelline]	77.6%	64.5%	> 10 µM	98.41	102.4	8.397	7.243	7.813	58 ± 4%	62.58	57.25	55.25	58.36					
COc1cc(OC)cc(C(=O)O[C@@H]2CN3Cc4c(cc5c(c4OC)OCO5)[C@@]24C=C[C@H](OC)C[C@@H]34)c1 [28m, 11-O-(3,5-Dimethoxybenzoyl)ambelline]	4.97%	0.465%	0.048 ± 0.014 µM	75.47	66.23	7.527	6.707	7.237	87 ± 6%	83.99	94	84.39	87.46	0.0483 µM	0.0413 µM	0.0646 µM	0.0389 µM	INFECTION (IC50 determination) ([1]; at 0.0001 µM): 91.9843; INFECTION (IC50 determination) ([1]; at 0.001 µM): 94.6285; INFECTION (IC50 determination) ([1]; at 0.01 µM): 82.6124; INFECTION (IC50 determination) ([1]; at 0.05 µM): 46.9733; INFECTION (IC50 determination) ([1]; at 0.1 µM): 24.6613; INFECTION (IC50 determination) ([1]; at 0.5 µM): 8.963; Huh-7 cell viability [2]: cell viability was not affected at antiplasmodial-active concentrations; CELL CONFLUENCY (IC50 determination) ([2]; human, 46 h, 0.0001 µM, pH 7): 108.569; CELL CONFLUENCY (IC50 determination) ([2]; human, 46 h, 0.001 µM, pH 7): 114.348; CELL CONFLUENCY (IC50 determination) ([2]; human, 46 h, 0.01 µM, pH 7): 105.456; CELL CONFLUENCY (IC50 determination) ([2]; human, 46 h, 0.05 µM, pH 7): 107.735; CELL CONFLUENCY (IC50 determination) ([2]; human, 46 h, 0.1 µM, pH 7): 107.6; CELL CONFLUENCY (IC50 determination) ([2]; human, 46 h, 0.5 µM, pH 7): 97.6188
COc1c2c(cc3c1OCO3)[C@]13C=C[C@H](OC)C[C@H]1N(C2)C[C@H]3OC(=O)c1cc(C)cc(C)c1 [28h, 11-O-(3,5-Dimethylbenzoyl)ambelline]	8.82%	0.852%	0.1 ± 0.018 µM			8.137	6.735	6.763						0.1 µM	0.0992 µM	0.0828 µM	0.118 µM	CELL CONFLUENCY Ø screening ([2]; at 1 μM, DMSO = 100, in % (unit assumed)): 93.78; CELL CONFLUENCY Ø screening ([2]; at 10 μM, DMSO = 100, in % (unit assumed)): 54.73; viability at 24 h, 10 µM ([4]; c = 10 µM, 24 h, MTT, read-out: HepG2 % of cell viability compared to non-treated control (100%)): 74 ± 13%; Ø screening, HepG2 (sheet Graphs) ([5]; c = 10 μM, DMSO = 100, in %): 74.24; 1. screening of cytotoxic potential, HepG2 cell line ([5]; c = 10 μM, replicate 1, in %): 61.45; 2. screening of cytotoxic potential, HepG2 cell line ([5]; c = 10 μM, replicate 2, in %): 88.22; 3. screening of cytotoxic potential, HepG2 cell line ([5]; c = 10 μM, replicate 3, in %): 73.05
CCCCC(=O)O[C@@H]1CN2Cc3c(cc4c(c3OC)OCO4)[C@@]13C=C[C@H](OC)C[C@@H]23 [28d, 11-O-Pentanoylambelline]	93.9%	25.2%	4.08 ± 1.78 µM	95.31	93.14	6.99	6.78	7.043	71 ± 7%	73.78	63.13	76.88	71.26	4.08 µM	5.65 µM	2.14 µM	4.44 µM	
COC1C=CC23c4cc5c(cc4CN(CC2O)C3C1)OCO5 (stereo not shown) [compound 29, haemanthamine]																		antiplasmodial effect (words) [6]: without notable activity; antiplasmodial effect (words) ([6]; listed as haemanthamine): neither haemanthamine nor ambelline showed inhibition
